Assay results published in paper PMC12300041, “Tricyclic Isatin Derivatives as Anti-Inflammatory Compounds with High Kinase Binding Affinity” (Molecules, 2025).

Key:
Test in all cases: KINOMEscan
Assay type in all cases: binding
AURKC = target: T1, AURKC (Homo sapiens, UniProt Q9UQB9)
T1 construct: purchased Eurofins DiscoverX KINOMEscan
In short: (§1)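 Kd determination: 12-pt half-log series, top 33 μM; 1 h binding, RT; unbound kinase pulled down on immobilized ligand, measured by qPCR.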

BRK = target: T2, BRK (Homo sapiens, UniProt Q13882)
T2 construct: purchased Eurofins DiscoverX KINOMEscan
T2 sequence (Q13882 whole entry): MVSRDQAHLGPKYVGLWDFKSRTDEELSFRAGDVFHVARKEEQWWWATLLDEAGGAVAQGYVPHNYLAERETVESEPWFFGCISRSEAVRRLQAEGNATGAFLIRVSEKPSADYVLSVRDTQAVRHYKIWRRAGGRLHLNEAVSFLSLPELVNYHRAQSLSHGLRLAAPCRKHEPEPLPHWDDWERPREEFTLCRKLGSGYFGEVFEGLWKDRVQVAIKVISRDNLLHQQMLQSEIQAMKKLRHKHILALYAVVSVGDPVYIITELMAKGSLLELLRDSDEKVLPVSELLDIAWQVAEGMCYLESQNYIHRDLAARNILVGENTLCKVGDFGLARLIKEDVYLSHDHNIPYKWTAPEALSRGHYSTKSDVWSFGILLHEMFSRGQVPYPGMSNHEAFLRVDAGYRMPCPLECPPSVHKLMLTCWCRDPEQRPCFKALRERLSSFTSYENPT
In short: (§2)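 Dissociation constants derive from a 12-point, half-log compound titration (highest 33 μM). Each binding reaction ran 1 h at room temperature before qPCR quantification of kinase captured on an immobilized affinity ligand.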

CAMK1 = target: T3, CAMK1 (Homo sapiens, UniProt Q14012)
T3 construct: purchased Eurofins DiscoverX KINOMEscan
In short: as §2

CAMK2A = target: T4, CAMK2A (Homo sapiens, UniProt Q9UQM7)
T4 construct: purchased Eurofins DiscoverX KINOMEscan
T4 sequence (Q9UQM7 whole entry): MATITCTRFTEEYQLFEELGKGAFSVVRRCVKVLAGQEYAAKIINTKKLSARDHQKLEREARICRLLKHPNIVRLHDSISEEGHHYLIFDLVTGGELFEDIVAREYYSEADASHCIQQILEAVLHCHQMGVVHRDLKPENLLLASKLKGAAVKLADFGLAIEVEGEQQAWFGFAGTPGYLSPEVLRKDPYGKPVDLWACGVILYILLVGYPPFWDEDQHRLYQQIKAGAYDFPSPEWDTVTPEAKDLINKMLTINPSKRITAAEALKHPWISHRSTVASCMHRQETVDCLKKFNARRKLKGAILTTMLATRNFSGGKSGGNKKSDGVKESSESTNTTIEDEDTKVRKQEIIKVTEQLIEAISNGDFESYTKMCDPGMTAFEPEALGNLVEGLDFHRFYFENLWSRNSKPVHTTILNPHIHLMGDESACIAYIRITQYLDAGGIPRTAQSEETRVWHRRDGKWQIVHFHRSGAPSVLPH
In short: as §2

CAMK2D = target: T5, CAMK2D (Homo sapiens, UniProt Q13557)
T5 construct: purchased Eurofins DiscoverX KINOMEscan
In short: as §2

DCAMKL3 = target: T6, DCAMKL3 (Homo sapiens, UniProt Q9C098)
T6 construct: purchased Eurofins DiscoverX KINOMEscan
In short: as §2

DLK = target: T7, DLK (Homo sapiens, UniProt Q12852)
T7 construct: purchased Eurofins DiscoverX KINOMEscan
In short: as §2

EGFR (L858R) = target: T8, EGFR (L858R) (Homo sapiens, UniProt P00533, L858R)
T8 construct: purchased Eurofins DiscoverX KINOMEscan
In short: as §1

EPHA5 = target: T9, EPHA5 (Homo sapiens, UniProt P54756)
T9 construct: purchased Eurofins DiscoverX KINOMEscan
In short: as §1

ERBB4 = target: T10, ERBB4 (Homo sapiens, UniProt Q15303)
T10 construct: purchased Eurofins DiscoverX KINOMEscan
In short: as §1

FLT1 = target: T11, FLT1 (Homo sapiens, UniProt P17948)
T11 construct: purchased Eurofins DiscoverX KINOMEscan
In short: as §1

FLT3 (N841I) = target: T12, FLT3 (N841I) (Homo sapiens, UniProt P36888, N841I)
T12 construct: purchased Eurofins DiscoverX KINOMEscan
In short: as §2

FLT3 (R834Q) = target: T13, FLT3 (R834Q) (Homo sapiens, UniProt P36888, R834Q)
T13 construct: purchased Eurofins DiscoverX KINOMEscan
In short: as §2

FRK = target: T14, FRK (Homo sapiens, UniProt P42685)
T14 construct: purchased Eurofins DiscoverX KINOMEscan
In short: as §2

JNK2 = target: T15, JNK2 (Homo sapiens, UniProt P45984)
T15 construct: purchased Eurofins DiscoverX KINOMEscan
In short: as §2

MAPKAPK5 = target: T16, MAPKAPK5 (Homo sapiens, UniProt Q8IW41)
T16 construct: purchased Eurofins DiscoverX KINOMEscan
In short: as §1

MINK = target: T17, MINK (Homo sapiens, UniProt Q8N4C8)
T17 construct: purchased Eurofins DiscoverX KINOMEscan
T17 sequence (Q8N4C8 whole entry): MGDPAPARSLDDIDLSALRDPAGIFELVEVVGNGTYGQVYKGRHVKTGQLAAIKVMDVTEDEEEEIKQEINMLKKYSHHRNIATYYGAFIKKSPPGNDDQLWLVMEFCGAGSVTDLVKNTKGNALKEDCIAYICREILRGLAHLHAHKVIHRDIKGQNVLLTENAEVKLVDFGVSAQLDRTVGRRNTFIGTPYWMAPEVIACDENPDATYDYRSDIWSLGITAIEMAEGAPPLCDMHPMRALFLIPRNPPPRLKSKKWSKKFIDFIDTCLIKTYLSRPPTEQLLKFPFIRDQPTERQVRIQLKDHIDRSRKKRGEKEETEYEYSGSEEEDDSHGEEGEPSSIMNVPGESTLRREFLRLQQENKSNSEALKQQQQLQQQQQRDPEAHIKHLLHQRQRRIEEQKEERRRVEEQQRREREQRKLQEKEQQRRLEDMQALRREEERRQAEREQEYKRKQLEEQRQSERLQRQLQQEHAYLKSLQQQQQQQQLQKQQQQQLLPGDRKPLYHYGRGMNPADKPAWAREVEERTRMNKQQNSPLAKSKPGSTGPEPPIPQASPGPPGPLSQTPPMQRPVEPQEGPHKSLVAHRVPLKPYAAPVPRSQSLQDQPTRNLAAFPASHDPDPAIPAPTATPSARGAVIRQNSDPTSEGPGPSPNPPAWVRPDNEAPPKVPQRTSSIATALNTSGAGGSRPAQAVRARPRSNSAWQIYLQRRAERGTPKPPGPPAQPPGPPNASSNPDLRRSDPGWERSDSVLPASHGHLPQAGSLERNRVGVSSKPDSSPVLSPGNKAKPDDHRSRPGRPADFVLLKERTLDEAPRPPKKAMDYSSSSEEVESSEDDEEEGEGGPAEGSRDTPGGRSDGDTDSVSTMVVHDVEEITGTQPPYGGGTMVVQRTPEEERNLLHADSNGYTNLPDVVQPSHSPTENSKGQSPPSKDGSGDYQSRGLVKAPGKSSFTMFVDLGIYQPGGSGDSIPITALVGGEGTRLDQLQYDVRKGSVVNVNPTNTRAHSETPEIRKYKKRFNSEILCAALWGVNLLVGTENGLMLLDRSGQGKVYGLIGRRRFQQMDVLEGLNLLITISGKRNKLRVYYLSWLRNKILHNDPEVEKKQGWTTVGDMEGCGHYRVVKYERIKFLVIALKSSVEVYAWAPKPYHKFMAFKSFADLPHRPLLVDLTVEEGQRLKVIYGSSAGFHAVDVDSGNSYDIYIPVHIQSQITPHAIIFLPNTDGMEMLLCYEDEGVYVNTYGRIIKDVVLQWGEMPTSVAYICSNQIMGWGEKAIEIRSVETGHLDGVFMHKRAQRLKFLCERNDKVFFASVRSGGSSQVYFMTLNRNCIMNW
In short: as §1

MUSK = target: T18, MUSK (Homo sapiens, UniProt O15146)
T18 construct: purchased Eurofins DiscoverX KINOMEscan
In short: as §2

NEK9 = target: T19, NEK9 (Homo sapiens, UniProt Q8TD19)
T19 construct: purchased Eurofins DiscoverX KINOMEscan
In short: as §2

NLK = target: T20, NLK (Homo sapiens, UniProt Q9UBE8)
T20 construct: purchased Eurofins DiscoverX KINOMEscan
In short: as §1

PAK2 = target: T21, PAK2 (Homo sapiens, UniProt Q13177)
T21 construct: purchased Eurofins DiscoverX KINOMEscan
In short: as §1

PFTAIRE2 = target: T22, PFTAIRE2 (Homo sapiens, UniProt Q96Q40)
T22 construct: purchased Eurofins DiscoverX KINOMEscan
T22 sequence (Q96Q40 whole entry): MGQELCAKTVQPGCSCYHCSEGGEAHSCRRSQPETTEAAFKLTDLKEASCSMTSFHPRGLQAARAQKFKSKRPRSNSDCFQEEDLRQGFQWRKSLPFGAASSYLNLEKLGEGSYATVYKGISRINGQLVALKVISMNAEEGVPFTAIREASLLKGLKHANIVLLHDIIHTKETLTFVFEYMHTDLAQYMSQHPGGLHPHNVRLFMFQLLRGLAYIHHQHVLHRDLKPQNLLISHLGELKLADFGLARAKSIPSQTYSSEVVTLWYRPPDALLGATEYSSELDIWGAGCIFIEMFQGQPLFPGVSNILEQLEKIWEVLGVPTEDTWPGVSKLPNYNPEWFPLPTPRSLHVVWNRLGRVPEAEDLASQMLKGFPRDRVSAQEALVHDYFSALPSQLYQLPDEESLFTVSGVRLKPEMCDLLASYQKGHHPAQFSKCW
In short: as §1

PHKG2 = target: T23, PHKG2 (Homo sapiens, UniProt P15735)
T23 construct: purchased Eurofins DiscoverX KINOMEscan
In short: as §1

PIK3CA (C420R) = target: T24, PIK3CA (C420R) (Homo sapiens, UniProt P42336, C420R)
T24 construct: purchased Eurofins DiscoverX KINOMEscan
T24 sequence (P42336 whole entry C420R): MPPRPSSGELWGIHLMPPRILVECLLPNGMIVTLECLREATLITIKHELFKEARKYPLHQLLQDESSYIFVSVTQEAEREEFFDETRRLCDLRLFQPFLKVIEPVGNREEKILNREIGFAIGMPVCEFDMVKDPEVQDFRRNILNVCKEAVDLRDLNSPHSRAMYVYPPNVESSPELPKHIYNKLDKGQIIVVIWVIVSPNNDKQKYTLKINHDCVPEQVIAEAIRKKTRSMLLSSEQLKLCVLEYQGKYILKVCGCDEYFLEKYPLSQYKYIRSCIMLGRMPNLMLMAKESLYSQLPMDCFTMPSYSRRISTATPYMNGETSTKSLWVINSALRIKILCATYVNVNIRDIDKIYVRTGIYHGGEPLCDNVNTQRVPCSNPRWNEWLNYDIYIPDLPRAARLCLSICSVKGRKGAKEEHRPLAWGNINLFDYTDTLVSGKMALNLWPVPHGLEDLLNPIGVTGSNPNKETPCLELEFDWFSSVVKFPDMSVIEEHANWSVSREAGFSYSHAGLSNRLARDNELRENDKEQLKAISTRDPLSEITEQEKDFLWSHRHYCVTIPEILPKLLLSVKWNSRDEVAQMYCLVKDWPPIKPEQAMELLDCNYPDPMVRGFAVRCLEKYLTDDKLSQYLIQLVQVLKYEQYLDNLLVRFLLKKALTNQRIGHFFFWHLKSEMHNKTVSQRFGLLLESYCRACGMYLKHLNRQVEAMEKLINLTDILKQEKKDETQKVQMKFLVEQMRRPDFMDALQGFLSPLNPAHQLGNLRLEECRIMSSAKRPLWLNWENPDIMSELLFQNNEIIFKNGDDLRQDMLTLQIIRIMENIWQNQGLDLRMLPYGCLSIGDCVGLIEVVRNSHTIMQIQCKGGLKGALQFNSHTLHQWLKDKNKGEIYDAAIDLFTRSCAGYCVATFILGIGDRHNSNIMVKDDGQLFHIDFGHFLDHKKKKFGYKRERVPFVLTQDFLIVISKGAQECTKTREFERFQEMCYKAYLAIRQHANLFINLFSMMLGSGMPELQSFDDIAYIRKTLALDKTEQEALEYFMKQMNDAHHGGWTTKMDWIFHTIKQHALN
In short: as §2

PIK4CB = target: T25, PIK4CB (Homo sapiens, UniProt Q9UBF8)
T25 construct: purchased Eurofins DiscoverX KINOMEscan
In short: as §1

PIM2 = target: T26, PIM2 (Homo sapiens, UniProt Q9P1W9)
T26 construct: purchased Eurofins DiscoverX KINOMEscan
In short: as §2

PIP5K1A = target: T27, PIP5K1A (Homo sapiens, UniProt Q99755)
T27 construct: purchased Eurofins DiscoverX KINOMEscan
In short: as §2

PIP5K2B = target: T28, PIP5K2B (Homo sapiens, UniProt P78356)
T28 construct: purchased Eurofins DiscoverX KINOMEscan
In short: as §1

RET (V804L) = target: T29, RET (V804L) (Homo sapiens, UniProt P07949, V804L)
T29 construct: purchased Eurofins DiscoverX KINOMEscan
In short: as §1

RIPK5 = target: T30, RIPK5 (Homo sapiens, UniProt Q6XUX3)
T30 construct: purchased Eurofins DiscoverX KINOMEscan
In short: as §2

SRC = target: T31, SRC (Homo sapiens, UniProt P12931)
T31 construct: purchased Eurofins DiscoverX KINOMEscan
In short: as §2

STK16 = target: T32, STK16 (Homo sapiens, UniProt O75716)
T32 construct: purchased Eurofins DiscoverX KINOMEscan
In short: as §2

TNIK = target: T33, TNIK (Homo sapiens, UniProt Q9UKE5)
T33 construct: purchased Eurofins DiscoverX KINOMEscan
In short: as §2

TRKB = target: T34, TRKB (Homo sapiens, UniProt Q16620)
T34 construct: purchased Eurofins DiscoverX KINOMEscan
In short: as §2

TTK = target: T35, TTK (Homo sapiens, UniProt P33981)
T35 construct: purchased Eurofins DiscoverX KINOMEscan
In short: as §2

[1] = target: T36, TYK2 (JH2 domain-pseudokinase) (Homo sapiens, UniProt P29597)
T36 construct: TYK2 (JH2 domain-pseudokinase); purchased Eurofins DiscoverX KINOMEscan
T36 sequence (P29597 556-888 limits assumed): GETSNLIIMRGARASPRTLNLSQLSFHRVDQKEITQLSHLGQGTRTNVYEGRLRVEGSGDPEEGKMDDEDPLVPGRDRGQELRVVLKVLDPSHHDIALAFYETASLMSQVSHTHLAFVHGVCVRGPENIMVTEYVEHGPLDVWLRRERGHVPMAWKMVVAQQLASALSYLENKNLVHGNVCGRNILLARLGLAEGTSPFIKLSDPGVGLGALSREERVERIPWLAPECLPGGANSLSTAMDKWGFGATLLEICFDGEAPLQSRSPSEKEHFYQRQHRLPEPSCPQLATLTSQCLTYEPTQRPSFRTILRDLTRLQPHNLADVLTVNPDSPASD
In short: as §2

ULK3 = target: T37, ULK3 (Homo sapiens, UniProt Q6PHR2)
T37 construct: purchased Eurofins DiscoverX KINOMEscan
In short: as §1

YANK2 = target: T38, YANK2 (Homo sapiens, UniProt Q9NY57)
T38 construct: purchased Eurofins DiscoverX KINOMEscan
In short: as §2

YANK3 = target: T39, YANK3 (Homo sapiens, UniProt Q86UX6)
T39 construct: purchased Eurofins DiscoverX KINOMEscan
In short: as §2

ZAK = target: T40, ZAK (Homo sapiens, UniProt Q9NYL2)
T40 construct: purchased Eurofins DiscoverX KINOMEscan
T40 sequence (Q9NYL2 whole entry): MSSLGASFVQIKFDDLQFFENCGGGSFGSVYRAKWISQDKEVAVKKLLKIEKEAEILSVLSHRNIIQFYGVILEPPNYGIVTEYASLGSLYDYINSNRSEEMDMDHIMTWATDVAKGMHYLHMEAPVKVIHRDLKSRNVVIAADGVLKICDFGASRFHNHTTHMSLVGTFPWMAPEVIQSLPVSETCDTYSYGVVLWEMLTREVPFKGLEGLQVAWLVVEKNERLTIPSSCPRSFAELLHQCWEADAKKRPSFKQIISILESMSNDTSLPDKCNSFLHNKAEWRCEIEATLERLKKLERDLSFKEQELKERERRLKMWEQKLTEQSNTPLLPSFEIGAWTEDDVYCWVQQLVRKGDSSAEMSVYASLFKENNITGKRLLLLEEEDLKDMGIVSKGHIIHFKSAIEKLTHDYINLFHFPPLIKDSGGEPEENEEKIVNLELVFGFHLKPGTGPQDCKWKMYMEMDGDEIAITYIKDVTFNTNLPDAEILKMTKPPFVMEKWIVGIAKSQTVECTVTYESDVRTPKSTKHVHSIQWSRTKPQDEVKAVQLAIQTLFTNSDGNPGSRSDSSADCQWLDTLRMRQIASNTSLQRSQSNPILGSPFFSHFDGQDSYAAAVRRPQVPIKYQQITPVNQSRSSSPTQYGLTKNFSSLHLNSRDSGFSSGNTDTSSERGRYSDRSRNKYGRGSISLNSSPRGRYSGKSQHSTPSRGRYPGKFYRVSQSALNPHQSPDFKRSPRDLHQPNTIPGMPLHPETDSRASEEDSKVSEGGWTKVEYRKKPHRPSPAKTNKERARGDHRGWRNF
In short: as §2

Work on `O=C1Nc2c(cc([N+](=O)[O-])c3c2CCCC3)C1=NO` [Compound 5d, 3-(Hydroxyimino)-5-nitro-1,3,6,7,8,9-hexahydro-2H-benzo[g]indol-2-one] yielded an inhibition at 10 µM (AURKC) of 39%, an inhibition at 10 µM (BRK) of 0% and an inhibition at 10 µM (CAMK1) of 38%. For the same compound, the inhibition at 10 µM (CAMK2A) was 71%, the inhibition at 10 µM (CAMK2D) was 51% and the inhibition at 10 µM (DCAMKL3) was 10%. For the same compound, the inhibition at 10 µM (DLK) was 23%, the inhibition at 10 µM (EGFR (L858R)) was 17% and the inhibition at 10 µM (EPHA5) was 9%. It also gave an inhibition at 10 µM (ERBB4) of 4%, an inhibition at 10 µM (FLT1) of 12% and an inhibition at 10 µM (FLT3 (N841I)) of 0%. The inhibition at 10 µM (FLT3 (R834Q)) was 10%, the inhibition at 10 µM (FRK) was 0% and the inhibition at 10 µM (JNK2) was 49%. It also gave an inhibition at 10 µM (MAPKAPK5) of 2%, an inhibition at 10 µM (MINK) of 70% and an inhibition at 10 µM (MUSK) of 0%. It also gave an inhibition at 10 µM (NEK9) of 32%, an inhibition at 10 µM (NLK) of 11% and an inhibition at 10 µM (PAK2) of 41%. The inhibition at 10 µM (PFTAIRE2) was 6%, the inhibition at 10 µM (PHKG2) was 45% and the inhibition at 10 µM (PIK3CA (C420R)) was 0%. It also gave an inhibition at 10 µM (PIK4CB) of 95.9%, an inhibition at 10 µM (PIM2) of 96% and an inhibition at 10 µM (PIP5K1A) of 54%. For the same compound, the inhibition at 10 µM (PIP5K2B) was 64%, the inhibition at 10 µM (RET (V804L)) was 2% and the inhibition at 10 µM (RIPK5) was 17%. It also gave an inhibition at 10 µM (SRC) of 28%, an inhibition at 10 µM (STK16) of 72% and an inhibition at 10 µM (TNIK) of 65%. It also gave an inhibition at 10 µM (TRKB) of 34%, an inhibition at 10 µM (TTK) of 95.6% and an inhibition at 10 µM [1] of 89.8%. For the same compound, the inhibition at 10 µM (ULK3) was 55%, the inhibition at 10 µM (YANK2) was 0% and the inhibition at 10 µM (YANK3) was 0%. The inhibition at 10 µM (ZAK) was 14%.
